SMILES strings stand for the structures.

The test system of one assay is AMPK-ACC. The assay can be described thus: Phosphorylation level of AMPK-ACC in the hypothalamus of HFHS fed rats (Western blot, anti-pACC). Format: in vivo. Particulars: 100 mg/kg BID for 2 days, overnight fasted, dosed one hour before terminal procedure, vs control. The text has this: The AMPK pathway is known to regulate food intake in the hypothalamus. In low energy state as in a food deprivation situation, AMPK phosphorylates and in this way inactivates acetyl CoA carboxylase (ACC). Phosphorylation of ACC thus reduces its ability to catalyse the production of malonyl-CoA which is thought to be implicated in the […] of food consumption (.Hu, Z., Dai, Y., Prentki, M., Chohnan, S, and Lane, D. (2005) J. Biol. Chem. 280: 39681-39683).
To investigate whether 4-OH can alter activity of the AMPK/ACC in the hypothalamus, rats were treated BID with 100 mg/kg of 4-OH or water (control group) for 2 days. Each group was composed of four animals. All rats (controls and 4-OH treated) were fasted overnight before experimentation. On day 29, rats from each respective group were treated one hour before the terminal procedure with their appropriate solution (water for control and 4-OH for chronically 4-OH treated rats). After decapitation, the hypothalamus were isolated and snap frozen in liquid nitrogen. The hypothalamus was then powdered with liquid nitrogen and then solubilized in lysis buffer. Western blot was performed on the hypothalamus extract after resolution of proteins onto a 7.5% polyacrylamide SDS gel and transfer onto a nitrocellulose membrane. […]

Assay [1] relates to Wistar rat model of diet-induced obesity. The assay can be described thus: Food consumption, weight gain and plasma triglycerides in Wistar rat model of diet-induced obesity, 28 days. The class given is in vivo, Wistar rats. As to conditions: for triglycerides plasma levels: 28 days. An excerpt: A total of 60 animals were used in the study. The animals were distributed into 6 groups; 1 group was fed standard chow, 1 group was fed a high fat, high sucrose (HFHS) diet with 28 days treatment, 1 untreated control group was fed a HFHS diet, and 1 untreated group was fed a HFHS diet, but with caloric intake restricted to match the caloric intake of the 4-OH treated animals (pair-fed animals). A fifth group was fed a high fat, high sucrose (HFHS) diet with 28 days treatment and received an acute oral administration of 4-OH just prior to experimentation on Day 29 of the study, and a sixth group was fed a HFHS diet, but with caloric intake restricted to match the caloric intake of the 4-OH treated animals receiving an acute oral administration of 4-OH on Day 29 of the study (pair-fed animals). Each group was composed of 10 animals. […] Body weights were measured once weekly from week 1 to week 4 of the study. For the four weeks of treatment, the test article 4-OH was dissolved in reverse osmosis water. 4-OH aliquoted and kept at 4° C. […] Untreated animals received water twice daily.

On to `C[C@@H]([C@H](C)O)[C@H](N)C(=O)O` [Compound 14a, (2S,3R,4S)-4-Hydroxyisoleucine], for which the “level of phosphorylated ACC in hypothalamus” value in the assay with AMPK-ACC was “even more reduced”. The triglycerides plasma levels entry in assay [1] (100 mg/kg twice daily, p<0.05) is “lower triglycerides plasma levels”; in assay [1] (100 mg/kg twice daily, p<0.05, listed as 4-OH), “significantly decreased compared to the respective pair fed groups”. Besides, in assay [1] (100 mg/kg twice daily, first week, vs HFHS control), the food consumption entry is reported as “slightly decreased”. The “weight gain after 28 days of treatment” value is “significantly decreased compared to the pair fed group and the HFHS control group” in assay [1] (100 mg/kg twice daily, p<0.05); “significantly decreased compared to the respective pair-fed group and the HFHS control group” in assay [1] (chronic 4-OH plus an acute oral administration on Day 29, p<0.05).
